This note sets out measurements from patent publication US20090048295A1, “SUBSTITUTED 5,6,7,8-TETRAHYDROQUINOLINE DERIVATIVES, COMPOSITIONS, AND METHODS OF USE THEREOF” (priority 2007, published 2009).

Assay [1] deals with T1, C5a receptor (Homo sapiens, UniProt P21730).
T1 sequence (P21730 1-350): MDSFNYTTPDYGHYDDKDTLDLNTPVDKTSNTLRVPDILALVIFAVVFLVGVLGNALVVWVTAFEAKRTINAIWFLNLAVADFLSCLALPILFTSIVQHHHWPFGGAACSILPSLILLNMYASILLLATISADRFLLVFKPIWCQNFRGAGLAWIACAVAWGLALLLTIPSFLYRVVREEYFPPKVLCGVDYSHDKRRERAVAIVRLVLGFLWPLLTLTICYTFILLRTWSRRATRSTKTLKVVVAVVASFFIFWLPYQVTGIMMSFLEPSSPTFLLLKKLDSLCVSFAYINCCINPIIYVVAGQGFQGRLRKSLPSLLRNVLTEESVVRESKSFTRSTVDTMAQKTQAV
Nature of the assay: biochemical.
Protocol: (§1) Competition binding assays for C5a receptors were performed by incubation of differentiated U937 cells (200,000 cells/well), test compound (1% DMSO) and [^125I]-C5a (Bolton & Hunter labeled, Perkin Elmer, specific activity=2200 Ci/mmol, 0.05 nM final) in binding buffer consisting of 50 mM HEPES, 5 mM MgCl2, 1 mM CaCl2, 0.5% protease-free BSA, 0.02% NaN3, pH 7.4. 100× solutions of test compounds were prepared in DMSO and further diluted in binding buffer. Non-specific binding was defined in wells containing 100 nM recombinant C5a. Cells and compound were pre-incubated for 30 min at RT. After addition of the radioligand, further incubation for 60 min occurred at 4° C. Cells were harvested on GF/B filters—presoaked in 0.5% polyethylenimine, followed by washing with binding buffer containing 500 mM NaCl, pH 7.4. Filter bound radioactivity was determined by liquid scintillation counting. IC50 and Ki values were calculated using non-linear regression in Graphpad Prism. Ki is calculated using the equation of Cheng and Prusoff (Biochem. Pharmacol. 1973, 22: 3099-3108)

Assay [2] has as its target T1, C5a receptor. The assay can be described thus: Calcium Mobilization Assay (C5a-induced Ca2+ mobilization, FLIPR, differentiated U937 cells). Format: cell-based. Further details: endogenous in cells; host or cells: U937 cells differentiated with dibutyryl cAMP. Particulars: […] recombinant human C5a, 20 min pre-incubation, multiple values = duplicate experiments, read-out: C5a Induced Ca Mobil. Average IC50. A digest of the protocol:
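Ca2+ responses to 1.5 nM human C5a were read by FLIPR as peak Fluo-3 fluorescence over 2 min in U937 monocytic cells. Cells were differentiated with 1 mM dibutyryl cAMP for 2–3 days and exposed to compound for 20 min at room temperature in 1% DMSO before agonist.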

The target of assay [3] is T1, C5a receptor. The assay can be described thus: [125I]-C5a Radioligand Binding Assay (competition binding, differentiated U937 cells).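 As to all read-outs here: cells preincubated with compound 30 min at room temperature, then 60 min at 4 °C with radioligand, bound counts read by scintillation, nonspecific binding defined with 100 nM C5a.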 The conditions noted are these: [125I]-C5a 0.05 nM, U937 cells, multiple values = duplicate experiments; for inhibition at 10 µM: read-out: [125I]-C5a Binding % Inhibition 10 μM, test compound 10 μM; for [125I]-C5a Binding % Inhibition 1 μM: test compound 1 μM; for [125I]-C5a Binding % Inhibition 10 μM: test compound 10 μM.
Protocol: as §1

Values joined by “and” are separate entries in the source; they are usually repeats but may differ in a detail not shown here. Identical values can stand only once.

As to `CCc1cccc(CC)c1-c1cc(OC)c2c(n1)CCCC2N(C)Cc1cccc2ccccc12` (centres unmarked) [Compound 90], the Ki in assay [1] worked out at 409 nM. The concentration for half-maximal inhibition (IC50) in assay [2] was over 10000 nM. Besides, the inhibition at 1 µM in assay [3] (read-out: [125I]-C5a Binding % Inhibition 1 μM, test compound 1 μM) was determined as 87%. In assay [3], the inhibition at 10 µM worked out at 86%, the “[125I]-C5a Binding % Inhibition 1 μM” value is recorded as 71% and the “[125I]-C5a Binding % Inhibition 10 μM” value was 84%.

In turn, `CCc1cccc(CC)c1-c1cc(OC)c2c(n1)CCCC2N(C)C1Cc2ccccc2C1` (centres unmarked) [Compound 95] showed a Ki in assay [1] of 2060 nM. In assay [2], the IC50 was over 10000 nM. For the same molecule, in assay [3], the inhibition at 10 µM stood at 68%; the “[125I]-C5a Binding % Inhibition 1 μM” value is 45% and 24%; the “[125I]-C5a Binding % Inhibition 10 μM” value amounted to 80%.

Broadly, the Ki is a dissociation constant, usually derived from enzyme kinetics or from competition with a known ligand. One may read the IC50 as the concentration that gives 50% inhibition. Usually inhibition stands for the share of the control response that was lost under treatment.
